System: participants with T1D
Design: species or system human
Conditions: in vivo
Protocol: FIG. 2 presents a study analysis relative to baseline, control IQ (CIQ) (e.g., AID), and basal IQ (BIQ) (e.g., PLGS) implementation, according to investigation that is demonstrable of one or more embodiments herein. Therein, an experimental arm (G1, G2) providing an initial daily dose of 5 mg empagliflozin (EMPA) is depicted against a control arm (G3, G4) without such dosing (NOEMPA). Relative characteristics of the analysis are provided below.
Study Design: A single-center, randomized, controlled, unblinded, crossover clinical trial (NCT04201496) compared four parallel groups, two groups in the experimental arm (EMPA) with 5 mg daily empagliflozin as adjunctive therapy to PLGS or AID, and two groups in the control arm (NOEMPA) with no drug and with a PLGS system (Basal-IQ, Tandem Diabetes Care) or AID system (Control-IQ, Tandem Diabetes Care). […] A tolerance to the medication was assessed prior to the starting of the next study phase, including adherence to the protocol, ketone testing 2-4 times per day with monitored values not greater than 0.6 mmol/L on at least two successive occasions (the first testing upon waking in a fasted state), no adverse events relating to perineal infection or symptomatic postural hypotension, and no evidence of significant hypoglycemia <54 mg/dL, or any other listed adverse effects of the medication. […]

## OC[C@H]1O[C@@H](c2ccc(Cl)c(Cc3ccc(O[C@H]4CCOC4)cc3)c2)[C@H](O)[C@@H](O)[C@@H]1O [CIQ-EMPA, empagliflozin]
  Difference (95% CI): Ketones: 0.02 mmol/L

Source: patent publication US20250345512A1, “COMBINATION SODIUM-GLUCOSE COTRANSPORTER INHIBITOR (SGLTI) INSULIN THERAPY FOR GLYCEMIC CONTROL IN TYPE 1 DIABETES” (University of Virginia Patent Foundation, priority 2022, published 2025)
